Assay results: patent US20040097420A1, “Proteasome regulation of NF-kB activity” (Harvard College, priority 1994, published 2004)
Non-standard residues stand in square brackets, D forms with d. Residues, ends and D or L forms follow the SMILES beside them. *: point of attachment. Nle = CCCC[C@H](N)C(=O)O; Cbz = O=C(OCc1ccccc1)*

Columns and labels:
cathepsin B = biological target: T1, cathepsin B (Bos taurus, UniProt P07688); test: Inhibition of cathepsin B (Ki); format: biochemical; details: Bovine spleen; substrate Z-RR-AMC; [DTT] = 2 mM, [EDTA] = 5 mM, pH 5.5, 37° C.; read-out: Ki Cat B
T1 construct: Bovine spleen; Substrate: Z-RR-AMC; from tissue; host or cells: bovine spleen
Source text: (§1) Tables I-III summarize results from kinetic experiments that measured the inhibition of the 20S and 26S proteasomes, as well as cathepsin B and calpain. In these tables, Ki values are reported, which are dissociation constants for the equilibrium that is established when enzyme and inhibitor interact to form the enzyme:inhibitor complex.

[1] = biological target: T2, chymotrypsin-like activity of the proteasome (UniProt Q32KL2); details: slow binding inhibitors; Vinitsky et al., Biochemistry 31:9421-9428 (1992); cited from earlier work
T2 sequence (Q32KL2 1-263): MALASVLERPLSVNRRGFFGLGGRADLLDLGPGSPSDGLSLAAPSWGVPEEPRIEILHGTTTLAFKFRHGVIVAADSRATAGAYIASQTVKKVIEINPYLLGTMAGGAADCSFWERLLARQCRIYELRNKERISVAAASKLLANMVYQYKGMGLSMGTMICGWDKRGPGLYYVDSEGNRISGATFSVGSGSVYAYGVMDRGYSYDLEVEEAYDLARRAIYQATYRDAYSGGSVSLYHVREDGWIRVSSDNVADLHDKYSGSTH

[2] = biological target: calpain, 80 kD catalytic subunit; test: Inhibition of calpain (Ki); format: biochemical; details: Rabbit muscle, substrate Suc-LLVY-AMC, [CaCl2] = 1 mM, [DTT] = 2 mM, pH 7.8, 20° C.
Source text: as §1

26S proteasome = biological target: T3, 26S proteasome (Oryctolagus cuniculus, UniProt G1T4Q9); test: Inhibition of the 26S proteasome (kinetic experiments, Ki); format: biochemical; details: Rabbit muscle; substrate Suc-LLVY-AMC; [Mg:ATP] = 2 mM
T3 sequence (G1T4Q9 1-263): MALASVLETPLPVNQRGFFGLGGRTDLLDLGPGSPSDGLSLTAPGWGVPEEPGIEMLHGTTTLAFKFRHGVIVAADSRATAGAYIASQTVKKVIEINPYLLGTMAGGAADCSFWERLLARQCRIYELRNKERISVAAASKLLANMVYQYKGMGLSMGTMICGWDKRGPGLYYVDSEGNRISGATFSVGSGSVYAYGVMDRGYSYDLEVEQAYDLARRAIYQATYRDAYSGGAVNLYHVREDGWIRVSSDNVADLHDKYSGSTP
Source text: as §1
(§2) The substances and assay conditions are briefly summarized in the footnotes to Table I. MG 101 and MG 102, also known as Calpain Inhibitor I and II, were purchased from Calbiochem as catalogue products.

20S Proteasome [3] = biological target: T4, 20S Proteasome (Oryctolagus cuniculus, UniProt G1T4Q9); test: Inhibition of the 20S proteasome (kinetic experiments, Ki); format: biochemical, Rabbit; design: Ki 20 S; substrate Suc-LLVY-AMC; details: Rabbit muscle, SDS-activated; substrate Suc-LLVY-AMC
T4 sequence (G1T4Q9 1-263): T3 sequence (G1T4Q9 1-263)
Source text: as §1, §2
Table V summarizes data for the inhibition of the 20S proteasome by various tripeptide aldehyde inhibitors.

PC12 cells = details: Tsubuki et al. (1993); cited from earlier work
[4] = system: p60Tth processing by proteasome; test: In vitro processing of p60Tth with purified proteasomes / extract; format: biochemical; details: processing reaction with purified 20/26S proteasomes or fraction II and Pr−(II) extract
Experimental: The p60Tth precursor (or p105) was translated in wheat germ extract. The substrate protein was mixed with HeLa cell cytoplasmic extract (S100) in a processing buffer containing 12 mM Tris, pH 7.5, 60 mM KCl, 20 mM creatine phosphate, 3.5 mM MgCl2 and 1 mM ATP. After incubation at 30° C for one hour, the reaction mixtures were subjected to immunoprecipitation with anti-p50 Ab and the proteins were resolved by SDS-PAGE. In the Apyrase treated sample, the p60 was incubated with 10 U of enzyme at 37° C. for 30 minutes to inactivate residual ATP in the wheat germ extract before adding the HeLa cell S100.
Increasing amounts of purified 20/26S proteasomes or a proteasome-enriched fraction from reticulocyte lysate, fraction II, were added alone or were combined with Pr^−(II) extract in a processing reaction (see Example 4). In addition, processing was inhibited by ATPγS, a non-hydrolyzable analogue of ATP that allows ubiquitination but inhibits proteasome function (lanes 3-5).

20S Proteasome ± SDS = biological target: T5, 20S Proteasome ± SDS (Oryctolagus cuniculus, UniProt G1T4Q9); test: MG 101 inhibition of 20S proteasome with SDS (Table IV); format: biochemical; details: enzyme preparation: 20S Proteasome ± SDS
T5 sequence (G1T4Q9 1-263): T3 sequence (G1T4Q9 1-263)

20S Proteasome [5] = biological target: T4, 20S Proteasome; test: MG 101 inhibition of muscle 20S proteasome (Table IV); format: biochemical; details: enzyme preparation: 20S Proteasome (muscle)
[6] = biological target: T6, 20S Proteasome + Muscle 180 kDa Activator (Oryctolagus cuniculus, UniProt G1T4Q9); test: MG 101 inhibition of 20S proteasome + muscle 180 kDa activator (Table IV); format: biochemical; details: enzyme preparation: 20S Proteasome + Muscle 180 kDa Activator
T6 sequence (G1T4Q9 1-263): T3 sequence (G1T4Q9 1-263)

26S Proteasome Complex = biological target: T7, 26S Proteasome Complex (Oryctolagus cuniculus, UniProt G1T4Q9); test: MG 101 inhibition of muscle 26S proteasome complex (Table IV); format: biochemical; details: enzyme preparation: 26S Proteasome Complex (muscle)
T7 sequence (G1T4Q9 1-263): T3 sequence (G1T4Q9 1-263)

CC(C)C[C@H](NC(=O)OCc1ccccc1)C(=O)N[C@@H](CC(C)C)C(=O)N[C@H](C=O)Cc1ccccc1 [MG 110, Z-Leu-Leu-Phe-H] (Cbz-Leu-Leu-Phe-aldehyde)
Ki (cathepsin B): 100 nM
Ki [1]: 460 nM
Ki [2]: 62 nM
Ki (26S proteasome): 180 nM
Ki (20S Proteasome [3]): 48 nM

CC(C)C[C@@H](C=O)NC(=O)[C@H](CC(C)C)NC(=O)[C@H](CC(C)C)NC(=O)OCc1ccccc1 [benzyloxycarbonyl(Z)-Leu-Leu-leucinal, Z-L-Leucine-L-Leucine-L-Leucinal] (Cbz-Leu-Leu-Leu-aldehyde)
optimal concentration initiating neurite outgrowth (PC12 cells): 30 nM

Nc1ncnc2c1ncn2[C@@H]1O[C@H](COP(=O)(O)OP(=O)(O)OP(O)(O)=S)[C@@H](O)[C@H]1O [ATPγS]
effect on p60Tth processing in vitro [4]: inhibited

CCOC(=O)C(=O)[C@H](Cc1ccccc1)NC(=O)[C@H](CC(C)C)NC(=O)[C@H](CC(C)C)NC(=O)OCc1ccccc1 [Z-Leu-Leu-Phe-COOEt]
Ki [1]: 53000 nM

CCCC[C@@H](C=O)NC(=O)[C@H](CC(C)C)NC(=O)[C@H](CC(C)C)NC(C)=O [MG 101, Ac-Leu-Leu-Nle-H] (Ac-Leu-Leu-[Nle]-aldehyde)
Ki (cathepsin B): 6 nM
Ki [1]: 5700 nM
Ki (20S Proteasome ± SDS): 140 nM
Ki [2]: 5 nM
Ki (26S proteasome): 1000 nM
Ki (20S Proteasome [5]): 7000 nM
Ki (20S Proteasome [3]): 140 nM
Ki [6]: 600 nM
Ki (26S Proteasome Complex): 3000 nM
